Results published in publication PMC10269072, “Predicting Optimal Antimalarial Drug Combinations from a Standardized Plasmodium falciparum Humanized Mouse Model” (Antimicrobial Agents and Chemotherapy, 2023).

Experiments:
[1] = test system: P. falciparum 3D7^0087/N9; assay: PfalcHuMouse model: therapeutic efficacy (parasite clearance, day of recrudescence, cure) in P. falciparum-infected humanized NSG mice; assay type: in vivo, Plasmodium falciparum; conditions: for day after which no recrudescence occurred (DoR): oral monotherapy, historical data, different dose levels and schedules, drugs with curative exposures in the data set; for exposure leading to 95% probability of cure: logistic regression of historical data
Excerpt: To implement the PfalcHuMouse model for analysis of combinations, we first defined the variables of therapeutic response and their interpretation in the context of this analysis. These variables were parasite clearance (PC), parasite recrudescence (PR), and cure (Fig. 2a). […] In our studies, we estimated PC by measuring the ratio of parasitemia in blood at 48-h intervals (pDn/pDn+2, where pD stands for parasitemia and n indicates the day of the assay), which was a simplified alternative of the classical approach and is frequently used in clinical studies. Conversely, PR depends on the number of viable parasites remaining in the body that could proliferate after noneffective treatment and is not systematically used to measure parasite killing in vivo. To test PR validity, we hypothesized that the time point for recrudescent parasitemia to reach the value at the onset of drug treatment (i.e., day of recrudescence [DoR]) correlated with the number of parasites that survived antimalarial treatment ([35]). […] It is important to note that both DoRs, days 0 and 60, represented not quantifiable magnitudes but labels of specific conditions (i.e., therapeutic failure and cure, respectively).
Experimental infections were carried out as previously described ([12]), with minor modifications. Briefly, NSG mice were engrafted with hE by intraperitoneal daily injections of 1-mL hE suspensions until a minimum of 40% chimerism in peripheral blood was achieved (typically10 days of injections). The hE-engrafted mice (HuMice) were infected with 0.3 mL of a suspension of pooled blood collected by aseptic cardiac puncture from CO2-euthanized donor HuMice harboring a parasitemia of 5 to 10% P. falciparum 3D7^0087/N9.
(§1) Before drug administration, each infected mouse was randomly assigned to its corresponding treatment. […] The treatments were administered by oral gavage with 20-gauge straight reusable feeding needles (Fine Science Tools GmbH, Heidelberg, Germany). The volume of administration for the per os (p.o.) route was 10 mL/kg of body weight unless otherwise stated.
The quantification of parasitemia at different time points after the infection was performed by flow cytometry as previously described ([46]). Briefly, 2 μL of blood was taken from the lateral tail vein of HuMice and stained with SYTO-16 (Fisher Scientific), a membrane-permeable nonselective fluorescent nucleic acid dye to detect intraerythrocytic parasites, and TER119-phycoerythrin monoclonal antibody (Miltenyi Biotec, Bergisch Gladbach, Germany) as a marker of murine erythrocytes, exactly as described. The samples were acquired and analyzed in a Attune NxT acoustic focusing flow cytometer (Thermo Fisher Scientific, Waltham, MA). The limit of quantification was set to 0.01%, where a minimum of 100 infected events was considered the minimal statistically significant sample (~10^6 total erythrocytes counted for detection). Parasitemia was expressed as the percentage of parasitized erythrocytes with respect to the total erythrocytes in circulation and/or as the absolute concentration of circulating parasitized erythrocytes. For qualitative assessment of blood samples from infected mice, blood smears stained with 10% (vol/vol) Giemsa in saline buffer (0.015 M NaCl, 0.001 M phosphate buffer [pH 7.0]) were prepared and analyzed as described previously ([56]) in a Zeiss Primo Star 4 microscope (Thermo Fisher Scientific) at a magnification of ×100.
The treated mice that reached the limit of detection by standard flow cytometry (<0.01% from total circulating erythrocytes) after pharmacological treatment were maintained until day 60 of study.

[2] = Blood partitioning: distribution of drugs in plasma, erythrocytes and infected erythrocytes of the PfalcHuMouse; assay type: in vivo, mice; conditions: for fraction associated with circulating erythrocytes / fraction found in plasma: mouse, in vivo
Excerpt: Given their physicochemical properties, both ferroquine and piperaquine might accumulate in infected erythrocytes ([41]), so we mined data on the distribution of these drugs in plasma, erythrocytes, and infected erythrocytes of the PfalcHuMouse from previous blood partitioning studies in unrelated drug discovery programs. Approximately 97.5% of both ferroquine and piperaquine was associated with circulating erythrocytes, while only 2.5% was found in plasma. For piperaquine, the accumulation was even higher in erythrocytes of infected individuals (>99%). Moreover, as previously reported ([13]), there was no sequestration of P. falciparum in vascular endothelium of the PfalcHuMouse. Therefore, the contribution of drug accumulated in mature parasites circulating in blood might be relevant, especially in proliferating parasites exposed to noninhibitory concentrations. Consequently, we corrected this effect on drug exposure in blood by dividing the total drug exposure levels in blood by the number of infected erythrocytes in circulation for each animal in the study.

[3] = Concentration of drugs in whole blood of P. falciparum 3D7^0087/N9-infected HuMice after oral dosing (LC-MS/MS, PK analysis); assay type: in vivo, mice; conditions: for AUC0toTlast / AUC(0-t) / Cmax / Tmax: mouse, in vivo; for AUC(0-t): AUC0toTlast
Experimental: as §1
The concentrations of drugs were measured in whole blood of P. falciparum 3D7^0087/N9-infected HuMice since the amount of plasma that could be obtained from each mouse was very low. Samples of peripheral blood (25 μL) were taken at different time points after dosing, mixed with 25 μL of 10.9 mM potassium oxalate and 59.5 mM sodium fluoride in Milli-Q water, and immediately frozen on a thermal block at −80°C. The frozen samples were stored at −80°C until analysis. Blood from P. falciparum 3D7^0087/N9-infected HuMice harboring a parasitemia of ~1.4% was used for preparation of standard curves, calibration, and quality control samples. The drugs were extracted from 10 μL of lysates, obtained by protein precipitation of blood samples, by using standard liquid-liquid extraction methods. The samples were analyzed by liquid chromatography-tandem mass spectrometry (LC-MS/MS) for quantification in Waters Micromass ultrahigh-performance triple quadrupole (UPLC-TQD) (Waters, Manchester, UK) mass spectrometers.
Multivariate linear regression, logistic regression, and descriptive statistics were carried out using GraphPad Prism 9.0 (GraphPad Software, San Diego, CA). The comparison of regression models was executed using the Akaike information criterion ([57]). Probability values of <0.05 were considered significant. Phoenix WinNonlin 8.2 (Certara, St. Louis, MO) was used for PK standard analysis.

[4] = ferroquine plus artefenomel model, intercept 17.2, n = 50, Tjur's R^2 = 0.31
[5] = artefenomel plus piperaquine model, intercept 102.8, n = 40, Tjur's R^2 = 0.91

With `CCCCN(CCCC)CC(O)c1cc(Cl)cc2c1-c1ccc(Cl)cc1/C2=C/c1ccc(Cl)cc1` (stereo not shown) [lumefantrine] the “day after which no recrudescence occurred (DoR)” value [1] was at most 35 days.

For ferroquine, the “fraction associated with circulating erythrocytes” value [2] was “Approximately 97.5%”, the “fraction found in plasma” value [2] was 2.5% and the “coefficient of log10AUC in logistic model of cure log(p/1−p)” value (shortened to “coefficient … of cure log(p/1−p)”) [1, 4] was 5.4. For the same compound, the “exposure leading to 95% probability of cure” value ([1]; monotherapy) was 0.58 × 10^−3 nmol/10^6 infected erythrocytes (iE) and the AUC0toTlast ([3]; 20 mg/kg) was 4708 ng·h/mL.

For `COc1ccc2nc3cc(Cl)ccc3c(Nc3cc(CN4CCCC4)c(O)c(CN4CCCC4)c3)c2n1` [pyronaridine], the “day after which no recrudescence occurred (DoR)” value [1] was at most 35 days.

With `Clc1ccc2c(N3CCN(CCCN4CCN(c5ccnc6cc(Cl)ccc56)CC4)CC3)ccnc2c1` [piperaquine] the “accumulation in erythrocytes of infected individuals” value ([2]; PfalcHuMouse, infected individuals) was over 99%, the “fraction associated with circulating erythrocytes” value [2] was “Approximately 97.5%” and the “fraction found in plasma” value [2] was 2.5%. For the same compound, the “coefficient … of cure log(p/1−p)” value [1, 5] was 24.2, the “exposure leading to 95% probability of cure” value ([1]; monotherapy) was 3.47 × 10^−3 nmol/10^6 infected erythrocytes (iE) and the AUC(0-t) ([3]; po, 5 mg/kg) was 25300 ng·h/mL. It also gave a Cmax ([3]; po, 5 mg/kg) of 598 ng/mL, an AUC(0-t) ([3]; po, 10 mg/kg) of 21800 ng·h/mL and a Cmax ([3]; po, 10 mg/kg) of 346 ng/mL. It also gave an AUC(0-t) ([3]; po, 25 mg/kg) of 41900 ng·h/mL, a Cmax ([3]; po, 25 mg/kg) of 414 ng/mL and a Tmax ([3]; po, 25 mg/kg) of 77 h. The AUC0toTlast ([3]; po, 40 mg/kg) was 38866 ng·h/mL, the AUC(0-t) ([3]; po, 40 mg/kg) was 70000 ng·h/mL and the Cmax ([3]; po, 40 mg/kg) was 1120 ng/mL. The AUC(0-t) ([3]; po, 75 mg/kg) was 355000 ng·h/mL, the Cmax ([3]; po, 75 mg/kg) was 2550 ng/mL and the Tmax ([3]; po, 75 mg/kg) was 109 h.

For `CNC[c-]1cccc1CNc1ccnc2cc(Cl)ccc12.[Fe+2].c1cc[cH-]c1` (stereo not shown) [SSR97213], the “share of the total exposure of ferroquine plus SSR97213” value ([3]; average, main metabolite of ferroquine) was 40%.

For `c1cc([C@H]2CC[C@]3(CC2)OO[C@]2(O3)C3CC4CC(C3)CC2C4)ccc1OCCN1CCOCC1` [artefenomel], the “coefficient … of cure log(p/1−p)” value [1, 5] was 16.2, the “coefficient … of cure log(p/1−p)” value [1, 4] was 1.6 and the “pattern of interaction with piperaquine on parasite killing in vivo” value ([1]; graphic analysis of cure, assuming potency of artefenomel in the same order of magnitude as piperaquine) was “synergistic”. The “mechanistic pattern of interaction with ferroquine” value ([1]; graphic analysis of cure, conditioned by large difference in intrinsic potency) was “additivity”, the “exposure up to which no cures were available in monotherapy” value ([1]; monotherapy, schedules of treatment used in the experimental studies) was “up to 4.7 × 10^−3 nmol/10^6 iE” and the AUC(0-t) ([3]; po, 100 mg/kg) was 40900 ng·h/mL. The Cmax ([3]; po, 100 mg/kg) was 2200 ng/mL and the Tmax ([3]; po, 100 mg/kg) was 2 h.
